# “And” between values parts separate entries of the source, which are not always exact repeats. Identical values can stand only once. Counter-ions that a name gives are not always drawn. Like-named read-outs stand apart in the source and are kept apart here.
# Assays:
# Test in all cases: Antibacterial activity, minimum inhibition concentration (method of The Chemotherapy Association, Japan)
# Type in all cases: cell-based
# [1] = test system: Proteus vulgaris OX-19; conditions: for MIC: Proteus vulgaris, OX19, strain H: Proteus vulgaris OX-19, read-out: minimum inhibition concentration; for minimum inhibition concentration: strain H: Proteus vulgaris OX-19
# Text: (§1) The abbreviations A to P will be used in the following Tables 2 to 8.
# (§2) Test results are shown in terms of the minimum inhibition concentration (µg/mℓ.) in the following Tables 2 to 8.
# [2] = test system: Proteus rettgeri NIH-96; conditions: for minimum inhibition concentration: strain I: Proteus rettgeri NIH-96; for MIC: Providencia rettgeri, NIH96, strain I: Proteus rettgeri NIH-96, read-out: minimum inhibition concentration
# Text: as §1, §2
# [3] = test system: Salmonella typhimurium 3173; conditions: for MIC: Salmonella enterica, TYPHIMURIUM
# Protocol: (§3) Antibacterial activities of the compounds according to this invention, which had been prepared in the preceding Examples, were measured according to the method prescribed by The Committee of Amendment of "The method for measurement of the minimum inhibition concentration", The Chemotherapy Association, Japan (See Chemotherapy, Vol. 22, No. 6, pp. 1126 - 1128 (1974) and Vol. 29, No. 1, pp. 76 - 79 (1981)).
# as §1, §2
# [4] = test system: Proteus mirabillis B-30-2 IFO-3849
# Protocol: as §3, §1, §2
# [5] = test system: Pseudomonas aeruginosa NCTC-10490; conditions: for MIC: Pseudomonas aeruginosa; for minimum inhibition concentration: strain M: Pseudomonas aeruginosa NCTC-10490
# Protocol: as §3, §1, §2
# [6] = test system: Escherichia coli NIHJC-2; conditions: for MIC: Escherichia coli; for minimum inhibition concentration: strain L: Escherichia coli NIHJC-2
# Protocol: as §3, §1, §2
# [7] = test system: Serratia marcescens IFO-3736; conditions: for MIC: Serratia marcescens; for minimum inhibition concentration: strain F: Serratia marcescens IFO-3736
# Protocol: as §3, §1, §2
# [8] = test system: Klebsiella pneumoniae; conditions: strain C: Klebsiella pneumoniae; for MIC: Klebsiella pneumoniae, read-out: minimum inhibition concentration
# Protocol: as §3, §1, §2
# [9] = test system: Citrobactor freundii NIH-10018 -68; conditions: strain O: Citrobactor freundii NIH-10018 -68; for MIC: read-out: minimum inhibition concentration
# Protocol: as §3, §1, §2
# [10] = test system: Escherichia coli NIHJ; conditions: for MIC: Escherichia coli, read-out: minimum inhibition concentration
# Protocol: as §3, §1, §2
# [11] = test system: Bacillus subtilis ATCC 6633; conditions: for minimum inhibition concentration: strain B: Bacillus subtilis ATCC 6633; for MIC: Bacillus subtilis, ATCC6633, strain B: Bacillus subtilis ATCC 6633, read-out: minimum inhibition concentration
# Protocol: as §3, §1, §2
# [12] = test system: Proteus morgani Kono; conditions: for MIC: read-out: minimum inhibition concentration
# Protocol: as §3, §1, §2
# [13] = test system: Staphylococcus aureus 6538-P; conditions: strain A: Staphylococcus aureus 6538-P; for MIC: read-out: minimum inhibition concentration
# Protocol: as §3, §1, §2
# [14] = test system: Enterobactor cloacae NCTC-9394; conditions: strain N: Enterobactor cloacae NCTC-9394; for MIC: read-out: minimum inhibition concentration
# Protocol: as §3, §1, §2
# [15] = test system: Serratia marcescens 1023; conditions: for minimum inhibition concentration: strain E: Serratia marcescens 1023
# Protocol: as §3, §1, §2
# [16] = strain D: Salmonella typhimurium 3173, read-out: minimum inhibition concentration
# [17] = strain G: Proteus mirabillis B-30-2 IFO-3849
# [18] = NCTC10490, strain M: Pseudomonas aeruginosa NCTC-10490, read-out: minimum inhibition concentration
# [19] = NIHJC2, strain L: Escherichia coli NIHJC-2, read-out: minimum inhibition concentration
# [20] = IFO3736, strain F: Serratia marcescens IFO-3736, read-out: minimum inhibition concentration
# [21] = strain K: Escherichia coli NIHJ
# [22] = strain D: Salmonella typhimurium 3173
# [23] = strain G: Proteus mirabillis B-30-2 IFO-3849, read-out: minimum inhibition concentration
molecule,measurement,setting,value
"CO/N=C(\C(=O)N[C@@H]1C(=O)N2C(C(=O)O)=C(COC(C)=O)CS[C@H]12)c1csc(N)n1 [Cefotaxime, reference compound]",MIC,[1],< 0.025 µg/mL
same,minimum inhibition concentration,[2],<0.00625 µg/mL
same,minimum inhibition concentration,[2]; listed as Cefota-xime,<0.025 µg/mL
same,MIC,[3]; [16],0.1 µg/mL
same,minimum inhibition concentration,[4]; [17],0.025 µg/mL
same,minimum inhibition concentration,"[4]; strain G: Proteus mirabillis B-30-2 IFO-3849, listed as Cefota-xime",0.1 µg/mL
same,MIC,[5]; [18],0.78 µg/mL
same,minimum inhibition concentration,[5],0.39 µg/mL
same,minimum inhibition concentration,[5]; listed as Cefota-xime,0.39 µg/mL
same,MIC,[6]; [19],0.2 µg/mL
same,minimum inhibition concentration,[6],0.1 µg/mL
same,MIC,[7]; [20],0.2 µg/mL
same,minimum inhibition concentration,[7],0.2 µg/mL
same,minimum inhibition concentration,[7]; listed as Cefota-xime,0.39 µg/mL
same,MIC,[8],0.1 µg/mL
same,minimum inhibition concentration,[8],0.05 µg/mL
same,MIC,[9],0.2 µg/mL
same,minimum inhibition concentration,[10]; [21],<0.00625 µg/mL
same,minimum inhibition concentration,"[10]; strain K: Escherichia coli NIHJ, listed as Cefota-xime",<0.025 µg/mL
same,minimum inhibition concentration,[11],6.25 µg/mL
same,minimum inhibition concentration,[12]; strain J: Proteus morgani Kono,0.39 µg/mL
same,minimum inhibition concentration,"[12]; strain J: Proteus morgani Kono, listed as Cefota-xime",1.56 µg/mL and 0.78 µg/mL
same,MIC,[13],0.39 µg/mL
same,minimum inhibition concentration,[14],0.2 µg/mL
same,minimum inhibition concentration,[14]; listed as Cefota-xime,0.2 µg/mL
same,MIC,[14],0.39 µg/mL
same,MIC,"[15]; Serratia marcescens, 1023, strain E: Serratia marcescens 1023, read-out: minimum inhibition concentration",50 µg/mL
same,minimum inhibition concentration,[15],100 µg/mL
"CC(=O)OCC1=C(C(=O)O)N2C(=O)[C@@H](NC(=O)Cc3cccs3)[C@H]2SC1 [Cephalo-thin, reference compound]",MIC,"[3]; read-out: minimum inhibition concentration, strain D: Salmonella typhimurium 3173",3.17 µg/mL
same,minimum inhibition concentration,[3]; [22],6.25 µg/mL
same,MIC,"[4]; read-out: minimum inhibition concentration, strain G: Proteus mirabillis B-30-2 IFO-3849",12.5 µg/mL
same,minimum inhibition concentration,[4]; [17],25 µg/mL and 12.5 µg/mL
same,MIC,"[5]; NCTC10490, read-out: minimum inhibition concentration",> 100 µg/mL
same,MIC,"[6]; NIHJC2, read-out: minimum inhibition concentration",12.5 µg/mL
same,MIC,[6]; [19],25 µg/mL
same,minimum inhibition concentration,[6],50 µg/mL
same,MIC,"[7]; IFO3736, read-out: minimum inhibition concentration",> 100 µg/mL
same,MIC,[10],12.5 µg/mL
same,MIC,[12],> 100 µg/mL
same,minimum inhibition concentration,[14],>100 µg/mL
same,MIC,[14],50 µg/mL
7-[2-dichloromethylene-2-(2-aminothiazol-4-yl)acetamido]-3-(l-carboxymethyltetrazol-5-yl)thiomethyl-3-cephem-4-carboxylic acid disodium salt [7-(3)],minimum inhibition concentration,[1],0.1 µg/mL
same,minimum inhibition concentration,[2],<0.025 µg/mL
same,minimum inhibition concentration,[3]; [22],6.25 µg/mL
same,minimum inhibition concentration,[4]; [17],1.56 µg/mL
same,minimum inhibition concentration,[5],6.25 µg/mL
same,minimum inhibition concentration,[6],25 µg/mL
same,minimum inhibition concentration,[7],25 µg/mL
same,minimum inhibition concentration,[8],12.5 µg/mL
same,minimum inhibition concentration,[9],12.5 µg/mL
same,minimum inhibition concentration,[10]; [21],<0.025 µg/mL
same,minimum inhibition concentration,[11],12.5 µg/mL
same,minimum inhibition concentration,[12]; strain J: Proteus morgani Kono,3.125 µg/mL
same,minimum inhibition concentration,[13],6.25 µg/mL
same,minimum inhibition concentration,[14],3.125 µg/mL
"CSc1nnc(SCC2=C(C(=O)O)N3C(=O)C(NC(=O)C(=C(Cl)Cl)c4csc(N)n4)C3SC2)s1 (stereo not shown) [9-(2), 7-[2-dichloromethylene-2-(aminothiazol-4-yl)-acetamido]-3-(2-methylthio-l,3,4-thiadiazol-5-yl) thiomethyl-3-cephem-4-carboxylic acid sodium salt]",MIC,[1],0.2 µg/mL
same,MIC,[2],< 0.025 µg/mL
same,MIC,[3]; [16],12.5 µg/mL
same,MIC,[4]; [23],25 µg/mL
same,MIC,[5]; [18],12.5 µg/mL
same,MIC,[6]; [19],25 µg/mL
same,MIC,[7]; [20],50 µg/mL
same,MIC,[8],12.5 µg/mL
same,MIC,[9],12.5 µg/mL
same,MIC,[10]; [21],< 0.025 µg/mL
same,MIC,[11],3.12 µg/mL
same,MIC,[12]; strain J: Proteus morgani Kono,12.5 µg/mL
same,MIC,[13],0.78 µg/mL
same,MIC,[14],3.12 µg/mL
"CC1=C(C(=O)O)N2C(=O)C(NC(=O)C(=C(Cl)Cl)c3csc(N)n3)C2SC1 (stereo not shown) [8-(3), 7-[2-dichloromethylene-2-(2-aminothiazol-4-yl)-acetamido]-desacetoxycephalosporanic acid sodium salt]",MIC,[1],12.5 µg/mL
same,MIC,[2],0.2 µg/mL
same,MIC,[3]; [16],> 100 µg/mL
same,MIC,[4]; [23],100 µg/mL
same,MIC,[5]; [18],> 100 µg/mL
same,MIC,[6]; [19],100 µg/mL
same,MIC,[7]; [20],> 100 µg/mL
same,MIC,[8],> 100 µg/mL
same,MIC,[9],> 100 µg/mL
same,MIC,[10]; [21],6.25 µg/mL
same,MIC,[11],100 µg/mL
same,MIC,[12]; strain J: Proteus morgani Kono,> 100 µg/mL
same,MIC,[13],25 µg/mL
same,MIC,[14],100 µg/mL
"CN(C)CCn1nnnc1SCC1=C(C(=O)O)N2C(=O)C(NC(=O)C(=C(Cl)Cl)c3csc(N)n3)C2SC1 (stereo not drawn) [10-(1), 7-[2-dichloromethylene-2-(2-aminothiazol-4-yl)-acetamido]-3-[l-(2-dimethylaminoethyl)-lH-tetrazol-5-yl]thiomethyl-3-cephem-4-carboxylic acid]",MIC,[1],0.78 µg/mL
same,MIC,[2],0.05 µg/mL
same,MIC,[3]; [16],12.5 µg/mL
same,MIC,[4]; [23],25 µg/mL
same,MIC,[5]; [18],25 µg/mL
same,MIC,[6]; [19],12.5 µg/mL
same,MIC,[7]; [20],50 µg/mL
same,MIC,[8],12.5 µg/mL
same,MIC,[9],12.5 µg/mL
same,MIC,[10]; [21],0.1 µg/mL
same,MIC,[11],12.5 µg/mL
same,MIC,[12]; strain J: Proteus morgani Kono,12.5 µg/mL
same,MIC,[13],3.12 µg/mL
same,MIC,[14],3.12 µg/mL
"Cn1nnnc1SCC1=C(C(=O)O)N2C(=O)C(NC(=O)C(=C(Cl)Cl)c3csc(N)n3)C2SC1 (stereo not drawn) [6-(3), 7-[2-dichloromethylene-(2-aminothiazol-4-yl)-acetamido]-3-(l-methyl-lH-tetrazol-5-yl)thiomethyl-3-cephem-4-carboxylic acid sodium salt]",minimum inhibition concentration,[1],0.1 µg/mL
same,minimum inhibition concentration,[2],<0.025 µg/mL
same,minimum inhibition concentration,"[3]; strain D: Salmonella typhimurium 3173, sodium salt",3.125 µg/mL
same,minimum inhibition concentration,[8]; sodium salt,6.25 µg/mL
same,minimum inhibition concentration,"[10]; strain K: Escherichia coli NIHJ, sodium salt",0.05 µg/mL
same,minimum inhibition concentration,[11]; sodium salt,25 µg/mL
same,minimum inhibition concentration,[13],0.78 µg/mL
"CC(=O)OCC1=C(C(=O)O)N2C(=O)C(NC(=O)C(=C(Cl)Cl)c3ccccc3)[C@H]2SC1 (stereo partly shown) [Compound 38, 7-(2-dichloromethylene-2-phenylacetamido)-3-acetoxymethyl-3-cephem-4-carboxylic acid]",MIC,[5]; [18],> 100 µg/mL
same,MIC,[10]; [21],3.1 µg/mL
same,MIC,[13],1.56 µg/mL
"7-[2-chloromethylene-2-(2-aminothiazol-4-yl)acetamido]-3-[(2,5-dihydro-6-hydroxy-2-methyl-5-oxo-as-triazin-3-yl)thiomethyl-3-cephem-4-carboxylic acid disodium salt [Compound 22]",minimum inhibition concentration,[1],0.1 µg/mL
same,minimum inhibition concentration,[3]; [22],1.56 µg/mL
same,minimum inhibition concentration,[4]; [17],0.39 µg/mL
same,minimum inhibition concentration,[5],6.25 µg/mL
same,minimum inhibition concentration,[6],3.125 µg/mL
same,minimum inhibition concentration,[7],1.56 µg/mL
same,minimum inhibition concentration,[8],0.78 µg/mL
same,minimum inhibition concentration,[9],1.56 µg/mL
same,minimum inhibition concentration,[10]; [21],<0.00625 µg/mL
same,minimum inhibition concentration,[11],6.25 µg/mL
same,minimum inhibition concentration,[12]; strain J: Proteus morgani Kono,0.39 µg/mL
same,minimum inhibition concentration,[13],0.78 µg/mL
same,minimum inhibition concentration,[14],0.39 µg/mL
same,minimum inhibition concentration,[15],6.25 µg/mL

# Reference: patent EP0048954A2, “Beta-lactam compounds, process for the preparation thereof and intermediate products for the preparation thereof” (SAGAMI CHEMICAL RESEARCH CENTER, priority 1980, dated 1982)
